Test results taken from patent publication US9539307B2, “Compositions and methods for treating amyotrophic lateral sclerosis” (THE RESEARCH INSTITUTE AT NATIONWIDE CHILDREN'S HOSPITAL, priority 2012, dated 2017).

Columns and labels:
GZMB = experiment: Western blot of GZMB knockdown in human astrocytes; type: cell-based
From the text: (§1) To knockdown PRF1 and GZMB levels in astrocytes, sequences from the RNAi Consortium lentiviral shRNA library were screened and relevant plasmids purchased from Open Biosystems. Clones TRCN0000077206 ([…] (SEQ ID NO: 19)) and TRCN0000032742 ([…] (SEQ ID NO: 20)) were used to target PRF1 and GZMB in mouse astrocytes, respectively. Clones TRCN0000007942 ([…] (SEQ ID NO: 21)) and TRCN0000006448 ([…] (SEQ ID NO: 22)) were used to knockdown PRF1 and GZMB in human astrocytes, respectively. Scrambled shRNA were used as controls for PRF1 ([…] (SEQ ID NO: 23)) and for GZMB ([…] (SEQ ID NO: 24)). […] Prior to addition to astrocytes, viral titer was obtained using Quick-titer lentivirus quantification kit follow manufacture's directions (CellBiolabs Inc, San Diego, Calif., USA).
(§2) Based on the levels of knockdown efficiency evaluated by western blot analysis, clones TRCN0000077206 ([…] (SEQ ID NO: 45)) and TRCN0000007942 ([…] (SEQ ID NO: 46)) were chosen to target PRF1 in mouse and human astrocytes, respectively. […]
(§3) Crude protein cell lysates were obtained using the Tissue Protein Extracting Reagent (Pierce, Rockford, Ill.) following manufacture recommendations. […] Bound primary antibody was detected by horseradish peroxidase conjugated secondary antibody (Jackson ImmunoResearch, West Grove, Pa.) followed by chemiluminescence using ECLTM Western Blotting Detection Reagents (GE Healthcare).

PRF1 = experiment: Western blot of PRF1 knockdown in human astrocytes; type: cell-based
From the text: as §1, §2, §3

Sequence	GZMB expression (GZMB)	PRF1 expression (PRF1)
CATTGTCTCCTATGGACGAAA (expressed or natural sequence) [SEQ ID NO: 2]	efficiently ablate	–
ACCTGAATCATGGCCACCTAA (chemistry not given here) [SEQ ID NO: 1]	–	efficiently ablate
